Data published in PubChem BioAssay AID248 (DTP/NCI, 2004).
Several values for one entry are separate records, joined by “and”; a condition that tells them apart may be missing. Equal values may be shown once. Inconclusive results and toxic doses are left out. Cut-off read from the data, not from the text of the source: active = T/C of 150% or more; inactive = T/C below 125%.

Test system: L1210 leukemia ip in BDF1 mice, survival T/C
Assay: NCI In Vivo Anticancer Drug Screen. Data for tumor model L1210 Leukemia (intraperitoneal) in B6D2F1 (BDF1) mice
Settings: endpoint: mean survival time, higher = longer survival
Method in brief: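 Transplantable tumor model; survival measured in treated vs vehicle control mice. Value = treated/control.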

[1] = dose: 100.0 mg/kg/injection, schedule: Q01DX009 (ip), vehicle: Klucel (hydroxypropylcellulose) (HPC)
[2] = dose: 200.0 mg/kg/injection, schedule: Q01DX009 (ip), vehicle: Klucel (hydroxypropylcellulose) (HPC)
[3] = dose: 400.0 mg/kg/injection, schedule: Q01DX009 (ip), vehicle: Klucel (hydroxypropylcellulose) (HPC)
[4] = dose: 50.0 mg/kg/injection, schedule: Q04DX002 (ip), vehicle: Klucel (hydroxypropylcellulose) (HPC)
[5] = dose: 100.0 mg/kg/injection, schedule: Q04DX002 (ip), vehicle: Klucel (hydroxypropylcellulose) (HPC)
[6] = dose: 200.0 mg/kg/injection, schedule: Q04DX002 (ip), vehicle: Klucel (hydroxypropylcellulose) (HPC)
[7] = dose: 100.0 mg/kg/injection, schedule: Q04DX003 (ip), vehicle: saline with Tween-80
[8] = dose: 200.0 mg/kg/injection, schedule: Q04DX003 (ip), vehicle: saline with Tween-80
[9] = dose: 400.0 mg/kg/injection, schedule: Q04DX003 (ip), vehicle: saline with Tween-80

Measured: T/C

CCOC(=O)C(CCC(c1ccc(OC)cc1)c1ccc(OC)cc1)C(=O)OCC
inactive: dose: 100.0 mg/kg/injection, schedule: Q01DX001 (ip), vehicle: saline 98 % of control | dose: 200.0 mg/kg/injection, schedule: Q01DX001 (ip), vehicle: saline 93 % of control | dose: 400.0 mg/kg/injection, schedule: Q01DX001 (ip), vehicle: saline 94 % of control

O=[N+]([O-])c1ccc(N/N=C2/C(=C/c3cccc4ccccc34)CCc3ccccc32)c([N+](=O)[O-])c1
inactive: [1] 91 % of control | [2] 89 % of control | [3] 91 % of control

NC(CSC1(c2ccc(Cl)cc2)c2ccccc2-c2ccccc21)C(=O)O (stereo not given)
inactive: dose: 1.56 mg/kg/injection, schedule: Q01DX009 (ip), vehicle: other 98 % of control | dose: 3.12 mg/kg/injection, schedule: Q01DX009 (ip), vehicle: other 106 % of control | dose: 6.25 mg/kg/injection, schedule: Q01DX009 (ip), vehicle: other 100 % of control | dose: 12.5 mg/kg/injection, schedule: Q01DX009 (ip), vehicle: other 98 % of control and 105 % of control | dose: 25.0 mg/kg/injection, schedule: Q01DX009 (ip), vehicle: other 95 % of control | dose: 50.0 mg/kg/injection, schedule: Q01DX009 (ip), vehicle: other 100 % of control | dose: 100.0 mg/kg/injection, schedule: Q01DX009 (ip), vehicle: other 97 % of control

CCCCCCCCCCC(=O)N1CCCCCC1
inactive: [4] 100 % of control | [5] 100 % of control | [6] 95 % of control

CNC(=O)c1ccc[n+](Cc2ccccc2)c1
inactive: dose: 18.75 mg/kg/injection, schedule: Q01DX009 (ip), vehicle: saline 94 % of control | dose: 37.5 mg/kg/injection, schedule: Q01DX009 (ip), vehicle: saline 100 % of control | dose: 37.5 mg/kg/injection, schedule: Q04DX003 (ip), vehicle: saline 97 % of control | dose: 75.0 mg/kg/injection, schedule: Q01DX001 (ip), vehicle: saline 106 % of control | dose: 75.0 mg/kg/injection, schedule: Q01DX009 (ip), vehicle: saline 92 % of control | dose: 75.0 mg/kg/injection, schedule: Q04DX003 (ip), vehicle: saline 101 % of control | dose: 150.0 mg/kg/injection, schedule: Q01DX001 (ip), vehicle: saline 101 % of control | dose: 150.0 mg/kg/injection, schedule: Q04DX003 (ip), vehicle: saline 100 % of control

ClC1(Cl)OC(Cl)(Cl)C(Cl)(Cl)OC1(Cl)Cl
inactive: dose: 50.0 mg/kg/injection, schedule: Q01DX009 (ip), vehicle: Klucel (hydroxypropylcellulose) (HPC) 98 % of control | [1] 98 % of control | [2] 102 % of control

O=C(CN1CCOCC1)Nc1ccc(S(=O)(=O)c2ccc(Cl)cc2)cc1
inactive: [7] 101 % of control | [8] 101 % of control | [9] 95 % of control

Cc1ccncc1C#N
inactive: dose: 6.0 mg/kg/injection, schedule: Q04DX003 (ip), vehicle: saline 98 % of control | dose: 12.0 mg/kg/injection, schedule: Q04DX003 (ip), vehicle: saline 98 % of control | dose: 24.0 mg/kg/injection, schedule: Q04DX003 (ip), vehicle: saline 98 % of control

COc1cc2c(c(OC)c1OC)-c1ccc(OC)c(=O)cc1[C@@H](NC=O)CC2
inactive: dose: 0.35 mg/kg/injection, schedule: Q01DX015 (ip), vehicle: carboxymethylcellulose (CMC) 118 % of control | dose: 0.5 mg/kg/injection, schedule: Q01DX009 (ip), vehicle: Klucel (hydroxypropylcellulose) (HPC) 122 % of control | dose: 0.7 mg/kg/injection, schedule: Q01DX015 (ip), vehicle: carboxymethylcellulose (CMC) 112 % of control | dose: 3.0 mg/kg/injection, schedule: Q01DX015 (ip), vehicle: carboxymethylcellulose (CMC) 90 % of control

CCC1=CC(=O)C(CC)=CC1=O
inactive: [7] 89 % of control | [8] 94 % of control | dose: 700.0 mg/kg/injection, schedule: Q04DX003 (ip), vehicle: saline with Tween-80 100 % of control

CC(=O)Nc1ccc(C(=O)O)cc1O
inactive: dose: 100.0 mg/kg/injection, schedule: Q04DX003 (ip), vehicle: saline 92 % of control | dose: 200.0 mg/kg/injection, schedule: Q04DX003 (ip), vehicle: saline 92 % of control | dose: 400.0 mg/kg/injection, schedule: Q04DX003 (ip), vehicle: saline 95 % of control

Cc1cccc2cc3ccc4ccccc4c3cc12
inactive: [1] 102 % of control | dose: 100.0 mg/kg/injection, schedule: Q04DX003 (ip), vehicle: other 101 % of control | [2] 95 % of control | dose: 200.0 mg/kg/injection, schedule: Q04DX003 (ip), vehicle: other 101 % of control | [3] 101 % of control | dose: 400.0 mg/kg/injection, schedule: Q04DX003 (ip), vehicle: other 95 % of control

Cc1cccc(C(=O)NCC(=O)O)c1
inactive: dose: 50.0 mg/kg/injection, schedule: Q01DX009 (ip), vehicle: saline 98 % of control | dose: 100.0 mg/kg/injection, schedule: Q01DX009 (ip), vehicle: saline 94 % of control | dose: 100.0 mg/kg/injection, schedule: Q04DX002 (ip), vehicle: saline with Tween-80 99 % of control | dose: 200.0 mg/kg/injection, schedule: Q01DX009 (ip), vehicle: saline 91 % of control | dose: 200.0 mg/kg/injection, schedule: Q04DX002 (ip), vehicle: saline with Tween-80 96 % of control

COC(=O)C(CCSC)NC(=O)c1ccccc1 (stereo not given)
inactive: dose: 100.0 mg/kg/injection, schedule: Q01DX009 (ip), vehicle: saline with Tween-80 93 % of control | dose: 200.0 mg/kg/injection, schedule: Q01DX009 (ip), vehicle: saline with Tween-80 96 % of control

CCCCS(=O)(=O)Cc1ccccc1
inactive: [1] 98 % of control | [5] 100 % of control | [2] 103 % of control | [6] 96 % of control | [3] 98 % of control | dose: 400.0 mg/kg/injection, schedule: Q04DX002 (ip), vehicle: Klucel (hydroxypropylcellulose) (HPC) 93 % of control

OCC(O)C(O)CO (stereo not given) (tested in a mixture with another compound)
inactive: [4] 104 % of control | [5] 95 % of control | [6] 98 % of control

CC1(CC(=O)O)CCc2ccccc2C1=O (stereo not given)
inactive: [1] 98 % of control | dose: 100.0 mg/kg/injection, schedule: Q04DX003 (ip), vehicle: Klucel (hydroxypropylcellulose) (HPC) 98 % of control | [2] 94 % of control | dose: 200.0 mg/kg/injection, schedule: Q04DX003 (ip), vehicle: Klucel (hydroxypropylcellulose) (HPC) 96 % of control | [3] 100 % of control | dose: 400.0 mg/kg/injection, schedule: Q04DX003 (ip), vehicle: Klucel (hydroxypropylcellulose) (HPC) 102 % of control

O=S(=O)(c1ccc(Br)cc1)c1ccc(Br)cc1
inactive: [7] 98 % of control | [8] 98 % of control | [9] 104 % of control

CCCCOB(/C=C/Sc1ccccc1)OCCCC
inactive: dose: 100.0 mg/kg/injection, schedule: Q01DX009 (ip), vehicle: saline sonified 89 % of control | dose: 100.0 mg/kg/injection, schedule: Q04DX003 (ip), vehicle: saline sonified 101 % of control | dose: 200.0 mg/kg/injection, schedule: Q01DX009 (ip), vehicle: saline sonified 87 % of control | dose: 200.0 mg/kg/injection, schedule: Q04DX003 (ip), vehicle: saline sonified 103 % of control | dose: 400.0 mg/kg/injection, schedule: Q01DX009 (ip), vehicle: saline sonified 100 % of control | dose: 400.0 mg/kg/injection, schedule: Q04DX003 (ip), vehicle: saline sonified 95 % of control

CC1(c2ccccc2O)Nc2ccccc2S1 (stereo not given)
inactive: [7] 92 % of control | [8] 92 % of control | [9] 96 % of control

CCC1C(CC(=O)O)=C(C)NC(C)=C1CC(=O)O
inactive: [1] 109 % of control | [2] 90 % of control
